Test results as given in patent US7416885B2, “Proliferated cell lines and uses thereof” (University of South Florida, priority 2002, dated 2008).

Key:
RCVC cells = assay: 45Ca2+ influx in RCVC cells; assay type: cell-based, rat; conditions: normally polarized cells
RCSN-3 cells [1] = assay: melanin fluorescence in RCSN-3 cells preincubated with L-Dopa; assay type: cell-based, rat; conditions: for melanin, mean: L-DOPA, n 3 (ANOVA summary); for melanin, Average: L-DOPA (+), 100 microM, 24 hrs
Experimental: RCSN-3 cells were preincubated for 24 hrs in the presence of 100 microM L-Dopa. Cells were lysed with a hypotonic buffer. […] Oxidation of melanin in vitro degraded the melanin polymer, resulting in a fluorescent solution. Fluorescence spectroscopy gave an excitation maximum at approximately 470 nm and an emission maximum at approximately 540 nm for both natural and synthetic melanin. Increasing the time of exposure to light or hydrogen peroxide increased melanin fluorescence (Kayatz, P et al., Invest Ophthalmol Vis Sci, January 2001,42(1):241–6).

RCSN-3 cells [2] = tested on: RCSN-3 cells
RCSN-3 cells [3] = tested on: RCSN-3 cells; remark: listed apart in the source
[4] = tested on: MAO B activity in RCSN-3 cell lysates; assay: MPP+ production by RCSN-3 cell lysates incubated with MPTP (HPLC); assay type: biochemical, rat
Experimental: To verify if RCSN-3 cells can produce MPP^+ from MPTP, lisates of RCSN-3 cells (differentiated and non-differentiated) were incubated with MPTP. Differentiation was induced by culturing in F10 media+2% adult bovine serum for one week. Non-differentiated conditions were attained with F10 media+10% adult bovine serum and 2.5% fetal bovine serum. Lisate buffer was PBS with 50 μM PMSF and a protease inhibiting cocktail (leupeptin, pepstatine, chemostatin). Samples were incubated with MPTP and MPP^+ for 15 min. at 37° C. HPLC studies were carried out in a SHIMADZU HPLC with […], reading at 245 nm. Results are shown in FIGS. 16A–C, FIGS. 17A–D, and FIGS. 18A–C.

[5] = molecular target: T1, receptors for dihydropyridines (Homo sapiens, UniProt Q13698); assay: dihydropyridine ([3H]PN200-110) binding to RCMH cells
T1 construct: endogenous in cells; host or cells: RCMH (immortalized human skeletal muscle cell line)

[6] = molecular target: microsomal fraction from RCVC cells (Rattus norvegicus, UniProt P22002); assay: 3H-nitrendipine binding to microsomal fraction of RCVC cells; conditions: read-out: equilibrium dissociation constant
RCSN cells = assay: intracellular Ca2+ imaging in Fluo-3 loaded RCSN cells; assay type: cell-based, rat; conditions: differentiated cells, 200 μM glutamate applied externally
UCHCC1 cells = assay type: cell-based, rat; conditions: read-out: half-maximal inhibitory concentration
[7] = molecular target: single class of receptors for [3H]en-TTX; assay type: binding, rat
[8] = molecular target: receptors for α-bungarotoxin (Homo sapiens, UniProt P02708+P07510+Q07001); assay type: binding
receptors for α-bungarotoxin, sequence (P02708 21-457 limits assumed): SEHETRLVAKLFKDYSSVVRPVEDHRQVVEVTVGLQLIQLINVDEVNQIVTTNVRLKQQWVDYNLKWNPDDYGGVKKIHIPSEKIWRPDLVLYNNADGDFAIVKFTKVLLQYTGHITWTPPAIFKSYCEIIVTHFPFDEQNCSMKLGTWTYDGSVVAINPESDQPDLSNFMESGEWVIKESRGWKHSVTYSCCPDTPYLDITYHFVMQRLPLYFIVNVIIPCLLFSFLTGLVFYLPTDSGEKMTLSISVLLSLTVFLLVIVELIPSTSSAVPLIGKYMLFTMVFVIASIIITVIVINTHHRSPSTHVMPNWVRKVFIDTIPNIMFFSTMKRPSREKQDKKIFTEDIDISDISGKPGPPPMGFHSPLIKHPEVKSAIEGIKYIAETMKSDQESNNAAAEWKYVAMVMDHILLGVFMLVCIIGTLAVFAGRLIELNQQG
receptors for α-bungarotoxin, sequence (P07510 23-517 limits assumed): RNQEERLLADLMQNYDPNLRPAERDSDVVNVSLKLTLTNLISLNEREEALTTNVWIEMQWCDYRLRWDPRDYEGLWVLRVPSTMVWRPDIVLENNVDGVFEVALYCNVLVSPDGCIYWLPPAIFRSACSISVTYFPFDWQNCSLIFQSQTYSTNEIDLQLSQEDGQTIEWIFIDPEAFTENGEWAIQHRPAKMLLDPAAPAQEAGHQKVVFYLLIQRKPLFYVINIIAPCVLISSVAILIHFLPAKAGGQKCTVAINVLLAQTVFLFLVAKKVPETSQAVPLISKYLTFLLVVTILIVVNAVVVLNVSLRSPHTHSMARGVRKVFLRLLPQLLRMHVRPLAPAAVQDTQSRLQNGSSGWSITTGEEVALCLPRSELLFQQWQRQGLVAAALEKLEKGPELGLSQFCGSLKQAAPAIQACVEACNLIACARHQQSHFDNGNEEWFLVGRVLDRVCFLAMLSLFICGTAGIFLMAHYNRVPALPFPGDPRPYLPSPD
receptors for α-bungarotoxin, sequence (Q07001 22-517 limits assumed): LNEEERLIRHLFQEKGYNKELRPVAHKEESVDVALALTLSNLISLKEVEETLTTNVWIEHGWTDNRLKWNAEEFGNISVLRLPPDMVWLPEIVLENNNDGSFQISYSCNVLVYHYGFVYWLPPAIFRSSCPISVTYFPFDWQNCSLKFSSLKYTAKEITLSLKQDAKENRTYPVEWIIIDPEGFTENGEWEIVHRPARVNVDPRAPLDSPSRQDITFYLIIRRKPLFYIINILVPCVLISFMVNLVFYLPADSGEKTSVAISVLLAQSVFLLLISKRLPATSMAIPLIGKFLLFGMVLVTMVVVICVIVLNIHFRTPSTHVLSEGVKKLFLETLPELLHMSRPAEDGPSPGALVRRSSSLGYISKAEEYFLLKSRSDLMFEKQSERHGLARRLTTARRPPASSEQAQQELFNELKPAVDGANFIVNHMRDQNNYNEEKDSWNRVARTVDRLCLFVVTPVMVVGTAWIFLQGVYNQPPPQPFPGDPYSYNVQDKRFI

T1 sequence (Q13698 whole entry): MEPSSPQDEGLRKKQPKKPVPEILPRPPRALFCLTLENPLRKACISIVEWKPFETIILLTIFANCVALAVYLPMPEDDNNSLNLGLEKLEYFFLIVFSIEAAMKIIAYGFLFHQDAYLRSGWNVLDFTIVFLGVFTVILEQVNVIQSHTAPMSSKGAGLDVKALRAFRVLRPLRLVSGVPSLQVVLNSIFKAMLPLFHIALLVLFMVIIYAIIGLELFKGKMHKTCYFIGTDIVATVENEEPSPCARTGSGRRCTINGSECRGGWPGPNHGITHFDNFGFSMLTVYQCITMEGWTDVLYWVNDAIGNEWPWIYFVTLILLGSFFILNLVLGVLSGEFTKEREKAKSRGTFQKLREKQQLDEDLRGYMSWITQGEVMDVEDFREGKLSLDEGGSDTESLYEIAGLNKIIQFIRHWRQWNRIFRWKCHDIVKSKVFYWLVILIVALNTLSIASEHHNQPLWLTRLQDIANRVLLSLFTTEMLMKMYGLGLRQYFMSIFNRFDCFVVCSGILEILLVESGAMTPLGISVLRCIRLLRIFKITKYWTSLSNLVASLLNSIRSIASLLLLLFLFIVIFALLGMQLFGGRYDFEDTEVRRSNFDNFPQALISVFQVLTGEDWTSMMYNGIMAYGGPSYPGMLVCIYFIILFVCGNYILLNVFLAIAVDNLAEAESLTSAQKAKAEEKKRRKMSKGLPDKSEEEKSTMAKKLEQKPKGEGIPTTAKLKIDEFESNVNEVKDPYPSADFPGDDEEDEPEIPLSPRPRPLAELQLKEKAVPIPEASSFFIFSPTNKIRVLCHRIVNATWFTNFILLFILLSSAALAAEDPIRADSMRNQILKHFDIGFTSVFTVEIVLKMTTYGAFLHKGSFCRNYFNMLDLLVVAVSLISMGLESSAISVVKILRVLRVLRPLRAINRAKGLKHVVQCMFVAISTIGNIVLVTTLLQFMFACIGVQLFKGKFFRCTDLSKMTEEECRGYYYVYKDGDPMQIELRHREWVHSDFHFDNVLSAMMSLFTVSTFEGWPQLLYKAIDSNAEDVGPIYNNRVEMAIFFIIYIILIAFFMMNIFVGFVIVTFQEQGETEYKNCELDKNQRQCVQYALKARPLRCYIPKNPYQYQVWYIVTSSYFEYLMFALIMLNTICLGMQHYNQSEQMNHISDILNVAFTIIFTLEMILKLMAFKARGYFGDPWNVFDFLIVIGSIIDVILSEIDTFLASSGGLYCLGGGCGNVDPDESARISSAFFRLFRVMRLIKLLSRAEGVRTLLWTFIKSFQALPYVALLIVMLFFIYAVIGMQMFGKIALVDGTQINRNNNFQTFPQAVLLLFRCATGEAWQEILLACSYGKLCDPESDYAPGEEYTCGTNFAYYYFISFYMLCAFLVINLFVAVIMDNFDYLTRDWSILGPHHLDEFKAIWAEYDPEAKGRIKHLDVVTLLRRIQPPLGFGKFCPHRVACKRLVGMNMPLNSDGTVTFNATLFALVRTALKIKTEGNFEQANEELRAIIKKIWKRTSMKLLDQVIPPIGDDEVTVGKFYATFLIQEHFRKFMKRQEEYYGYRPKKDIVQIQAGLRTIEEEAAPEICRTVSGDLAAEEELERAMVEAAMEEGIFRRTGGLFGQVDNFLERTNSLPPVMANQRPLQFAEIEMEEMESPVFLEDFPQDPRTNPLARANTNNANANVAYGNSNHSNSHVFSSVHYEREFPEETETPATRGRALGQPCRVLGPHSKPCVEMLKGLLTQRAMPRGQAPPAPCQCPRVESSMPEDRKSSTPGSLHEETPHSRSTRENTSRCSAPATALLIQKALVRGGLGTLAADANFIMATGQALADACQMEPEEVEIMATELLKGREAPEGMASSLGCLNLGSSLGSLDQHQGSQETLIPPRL

COC(=O)C1=C(C)NC(C)=C([N+](=O)[O-])C1c1ccccc1C(F)(F)F (centres unmarked) [BAYK-8644]
45Ca2+ influx induced by calcium channel agonist (RCVC cells): equivalent influx

CCOC(=O)C1=C(C)NC2=C(C(=O)OC2)C1c1ccccc1OC(F)F (centres unmarked) [CGP-28392]
45Ca2+ influx induced by calcium channel agonist (RCVC cells): equivalent influx

N[C@@H](Cc1ccc(O)c(O)c1)C(=O)O [L-DOPA, levodopa]
melanin, mean (RCSN-3 cells [1]; Glass): 0.03305 | melanin, mean (RCSN-3 cells [1]; Plastic): 0.04045 | melanin, Average (RCSN-3 cells [1]; glass dishes): 0.033 | melanin, Average (RCSN-3 cells [1]; plastic dishes): 0.040

C[n+]1ccc(-c2ccccc2)cc1 [MPP+, 1-methyl-4-phenylpyridinium]
DNA fragmentation (TUNEL) (RCSN-3 cells [2]): fragmentation of DNA | mitochondrial membrane potential (JC-1 fluorescence) (RCSN-3 cells [3]): affects mitochondrial function | ratio of emission between JC-1 and J monomer, normalized to basal fluorescence (RCSN-3 cells [3]): significant differences from controls

CN1CC=C(c2ccccc2)CC1 [MPTP, 1-methyl-4-phenyl-1,2,3,6-tetrahydropyridine]
production of MPP+ from MPTP [4]: no production of MPP^+

COC(=O)C1=C(C)NC(C)=C(C(=O)OC(C)C)C1c1cccc2nonc12 (centres unmarked) [[^3H]PN200-110]
Bmax [5]: 0.3 pmol/mg protein | Kd [5]: 0.5 nM

CCOC(=O)C1=C(C)NC(C)=C(C(=O)OC)C1c1cccc([N+](=O)[O-])c1 (centres unmarked) [^3H-nitrendipine, nitrendipine]
Kd [6]: 0.7 nM

NCCc1ccc(O)c(O)c1 [dopamine]
mitochondrial membrane potential (JC-1 fluorescence) (RCSN-3 cells [3]): decrease in membrane potential | ratio of emission between JC-1 and J monomer, normalized to basal fluorescence (RCSN-3 cells [3]): significant differences from controls

N[C@@H](CCC(=O)O)C(=O)O [glutamate]
cells responding with increases in Ca2+ (RCSN cells): up to 40%

[Mn+2] [manganese]
mitochondrial membrane potential (JC-1 fluorescence) (RCSN-3 cells [3]): decrease in membrane potential | ratio of emission between JC-1 and J monomer, normalized to basal fluorescence (RCSN-3 cells [3]): significant differences from controls

NC1=N[C@H](O)[C@H]2[C@H]3O[C@]4(O)O[C@@H]([C@@H](O)[C@@]2(N1)[C@@H]4O)[C@]3(O)CO [tetrodotoxin]
IC50 (UCHCC1 cells): 0.9 nM

[^3H]ethylenediamine-tetrodotoxin [[^3H]en-TTX]
Kd [7]: 1.1 nM | maximal binding (Bmax) [7]: 173 fmol/mg protein

α-bungarotoxin
Bmax [8]: 0.7 pmol/mg protein | Kd [8]: 1.5 nM
